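Step 1: Grow cells in 96-well plates. Step 2: Expose to compound for 48 hours at 5 concentrations. Step 3: Interpolate endpoints linearly; if unreached, use highest concentration. TGI is the concentration that stops growth completely.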
Legend:
Assay in all cases: growth of human tumour cells (NCI), 48 h
[1] = system: SNB-19 CNS
[2] = system: NCI-H522 lung
[3] = system: UACC-62 melanoma
[4] = system: SK-MEL-5 melanoma
[5] = system: A498 renal
[6] = system: OVCAR-4 ovarian
[7] = system: M14 melanoma
[8] = system: RPMI-8226 leukemia
[9] = system: U251 CNS
[10] = system: MDA-MB-231 breast
[11] = system: MDA-N
[12] = system: SK-MEL-28 melanoma
[13] = system: IGROV1 ovarian
[14] = system: DU-145 prostate
[15] = system: CCRF-CEM leukemia
[16] = system: PC-3 prostate
[17] = system: MDA-MB-435
[18] = system: T-47D breast
[19] = system: OVCAR-8 ovarian
[20] = system: KM12 colon
[21] = system: TK-10 renal
[22] = system: EKVX NSCLC
[23] = system: NCI-H226 lung
[24] = system: HT29 colon
[25] = system: ACHN renal
[26] = system: OVCAR-5 ovarian
[27] = system: SNB-75 CNS
[28] = system: NCI-H460 lung
[29] = system: SK-MEL-2 melanoma
[30] = system: SF-268 CNS
[31] = system: SF-295 CNS
[32] = system: RXF 393 renal
[33] = system: MOLT-4 leukemia
[34] = system: SR leukemia
[35] = system: UACC-257 melanoma
[36] = system: SF-539 CNS
[37] = system: SN12C renal
[38] = system: A549 NSCLC
[39] = system: NCI/ADR-RES ovarian
[40] = system: SW-620 colon
[41] = system: NCI-H23 lung
[42] = system: HCC-2998 colon
[43] = system: CAKI-1 renal
[44] = system: BT-549 breast
[45] = system: MALME-3M melanoma
[46] = system: HCT-116 colon
[47] = system: HL-60(TB) leukemia
[48] = system: OVCAR-3 ovarian
[49] = system: 786-0 renal
[50] = system: HS 578T breast
[51] = system: K-562 leukemia
[52] = system: HCT-15 colon
[53] = system: SK-OV-3 ovarian
[54] = system: MCF7 breast
[55] = system: HOP-62 NSCLC
[56] = system: UO-31 renal
[57] = system: COLO 205 colon
[58] = system: LOX IMVI melanoma
[59] = system: HOP-92 NSCLC

## CCCC(=O)OC1CC(n2cc(F)c(=O)[nH]c2=O)OC1CO (stereo not drawn)
[1]
  TGI: > 10 µM
[2]
  TGI: > 10 µM
[3]
  TGI: > 10 µM
[4]
  TGI: 1.84 µM
[5]
  TGI: > 10 µM
[6]
  TGI: > 10 µM
[7]
  TGI: > 5.96 µM
[8]
  TGI: > 10 µM
[9]
  TGI: > 10 µM
[10]
  TGI: > 10 µM
[11]
  TGI: > 10 µM
[12]
  TGI: > 10 µM
[13]
  TGI: > 10 µM
[14]
  TGI: > 3.23 µM
[15]
  TGI: > 10 µM
[16]
  TGI: > 10 µM
[17]
  TGI: > 10 µM
[18]
  TGI: > 10 µM
[19]
  TGI: > 10 µM
[20]
  TGI: > 10 µM
[21]
  TGI: > 8.81 µM
[22]
  TGI: > 10 µM
[23]
  TGI: > 10 µM
[24]
  TGI: > 10 µM
[25]
  TGI: > 10 µM
[26]
  TGI: > 10 µM
[27]
  TGI: > 8.14 µM
[28]
  TGI: > 10 µM
[29]
  TGI: > 10 µM
[30]
  TGI: > 10 µM
[31]
  TGI: > 10 µM
[32]
  TGI: > 10 µM
[33]
  TGI: > 10 µM
[34]
  TGI: > 10 µM
[35]
  TGI: > 10 µM
[36]
  TGI: 0.385 µM
[37]
  TGI: > 10 µM
[38]
  TGI: > 10 µM
[39]
  TGI: > 10 µM
[40]
  TGI: > 10 µM
[41]
  TGI: 1.11 µM
[42]
  TGI: > 10 µM
[43]
  TGI: > 10 µM
[44]
  TGI: > 10 µM
[45]
  TGI: > 10 µM
[46]
  TGI: > 10 µM
[47]
  TGI: > 10 µM
[48]
  TGI: > 10 µM
[49]
  TGI: > 10 µM
[50]
  TGI: > 10 µM
[51]
  TGI: > 10 µM
[52]
  TGI: > 10 µM
[53]
  TGI: > 10 µM
[54]
  TGI: > 10 µM
[55]
  TGI: > 10 µM
[56]
  TGI: > 10 µM
[57]
  TGI: > 10 µM
[58]
  TGI: > 10 µM

## COC(=O)/C=C\C(C#N)(C#N)N=Cc1ccsc1
[1]
  TGI: 27.6 µM
[2]
  TGI: 1.99 µM
[3]
  TGI: 9.69 µM
[4]
  TGI: 15.5 µM
[5]
  TGI: 35.3 µM
[6]
  TGI: 32.5 µM
[59]
  TGI: 3.7 µM
[7]
  TGI: 8.23 µM
[8]
  TGI: 3.28 µM
[9]
  TGI: 29.7 µM
[10]
  TGI: 12.2 µM
[11]
  TGI: 8.66 µM
[12]
  TGI: 7.43 µM
[13]
  TGI: 20.9 µM
[14]
  TGI: 21.5 µM
[15]
  TGI: 0.93 µM
[16]
  TGI: 25.4 µM
[17]
  TGI: 12.5 µM
[18]
  TGI: 4.17 µM
[19]
  TGI: 13.3 µM
[20]
  TGI: 28.9 µM
[21]
  TGI: 5.96 µM
[22]
  TGI: 12.5 µM
[23]
  TGI: 45.3 µM
[24]
  TGI: 8.97 µM
[25]
  TGI: 2.72 µM
[26]
  TGI: 16.2 µM
[27]
  TGI: 29.5 µM
[28]
  TGI: 33.6 µM
[29]
  TGI: 30.7 µM
[30]
  TGI: 46.2 µM
[31]
  TGI: 27.5 µM
[32]
  TGI: 3.72 µM
[33]
  TGI: 5 µM
[34]
  TGI: 0.645 µM
[35]
  TGI: 9.35 µM
[37]
  TGI: 9.73 µM
[38]
  TGI: 33 µM
[39]
  TGI: > 19.7 µM
[40]
  TGI: 3.34 µM
[41]
  TGI: 22.1 µM
[42]
  TGI: 29.6 µM
[43]
  TGI: 6.07 µM
[44]
  TGI: 5.7 µM
[45]
  TGI: 3.5 µM
[46]
  TGI: 3.57 µM
[48]
  TGI: 5.37 µM
[49]
  TGI: 3.02 µM
[50]
  TGI: > 68 µM
[51]
  TGI: 1.62 µM
[52]
  TGI: 2.9 µM
[53]
  TGI: 31.3 µM
[54]
  TGI: 5.05 µM
[55]
  TGI: 30.9 µM
[56]
  TGI: 8.85 µM
[57]
  TGI: 2.73 µM
[58]
  TGI: 5.71 µM

## COc1ccc(C(C)NNC(=O)c2ccncc2)cc1F (stereo not drawn)
[1]
  TGI: > 100 µM
[3]
  TGI: > 100 µM
[4]
  TGI: > 100 µM
[5]
  TGI: > 100 µM
[6]
  TGI: > 100 µM
[59]
  TGI: > 100 µM
[7]
  TGI: > 100 µM
[8]
  TGI: > 100 µM
[9]
  TGI: > 100 µM
[10]
  TGI: > 100 µM
[11]
  TGI: > 100 µM
[12]
  TGI: > 100 µM
[13]
  TGI: > 100 µM
[14]
  TGI: > 100 µM
[15]
  TGI: > 100 µM
[16]
  TGI: > 100 µM
[17]
  TGI: > 100 µM
[18]
  TGI: > 100 µM
[19]
  TGI: > 100 µM
[20]
  TGI: > 100 µM
[21]
  TGI: > 100 µM
[22]
  TGI: > 100 µM
[23]
  TGI: > 100 µM
[24]
  TGI: > 100 µM
[25]
  TGI: > 100 µM
[26]
  TGI: > 100 µM
[27]
  TGI: > 100 µM
[28]
  TGI: > 100 µM
[29]
  TGI: > 100 µM
[30]
  TGI: > 100 µM
[31]
  TGI: > 100 µM
[32]
  TGI: > 100 µM
[33]
  TGI: > 100 µM
[34]
  TGI: > 100 µM
[35]
  TGI: > 100 µM
[36]
  TGI: > 100 µM
[37]
  TGI: > 100 µM
[38]
  TGI: > 100 µM
[39]
  TGI: > 100 µM
[40]
  TGI: > 100 µM
[41]
  TGI: > 100 µM
[42]
  TGI: > 100 µM
[43]
  TGI: > 100 µM
[44]
  TGI: > 100 µM
[45]
  TGI: > 100 µM
[46]
  TGI: > 100 µM
[47]
  TGI: > 100 µM
[48]
  TGI: > 100 µM
[49]
  TGI: > 100 µM
[50]
  TGI: > 100 µM
[51]
  TGI: > 100 µM
[52]
  TGI: > 100 µM
[53]
  TGI: > 100 µM
[54]
  TGI: > 100 µM
[55]
  TGI: > 100 µM
[56]
  TGI: > 100 µM
[57]
  TGI: > 100 µM
[58]
  TGI: > 100 µM
